# Data published in patent publication US5952189A (priority 1997, dated 1999).
# “Also recorded” adds a separate entry of the source. Read-outs that look alike come from different tables or passages of the source.
# How the values were obtained:
# [1] = Poe et al. 1991; cited from earlier work
# HL-60 = assay: Inhibition of UV-induced DNA fragmentation in HL-60 cells; assay type: cell-based, human; conditions: UV 0.2 J/cm^2, 2 h, no inhibitor 49 ± 2.0
# Protocol: (§1) To determine if these findings were unique to U937 or if other cell lines also require protease activity to undergo apoptosis, the effects of several inhibitors on apoptosis induced by UV light in the human mammary carcinoma, BT-20, the murine fibroblast cell line, 3T3, and the human myeloid leukemia, HL-60 were tested. For the BT-20 and 3T3 cells, target cells were pretreated for one hour (with or without inhibitors as indicated in the table) and exposed to UV light at 0.5 J/cm^2 and then incubated for eight hours prior to assessing DNA fragmentation. HL-60 cells were pretreated for one hour (with or without inhibitors as indicated in the table) and exposed to UV at 0.2 J/cm^2 and then incubated for two hours prior to assessing DNA fragmentation.
# DNA fragmentation assays were carried out according to the protocol of Wright S. C., et al. (1,992) J. Cell. Biochem. 48, 344-355. Target cells were labeled with ^3 H-thymidine and plated in triplicate in flat bottom microtiter plates. Cells were incubated for the indicated length of time for each experiment in the presence of TNF or various inhibitors. In some experiments, cells were treated with UV light at 245 nm using a UV Crosslinker (Fisher Scientific). Assays were harvested and counted on a Packard matrix 96 beta counter. Percent DNA fragmentation was calculated as for the nuclear assay described in Example 3. […]
# HL-60 cells = conditions: Bruno et al. 1992; cited from earlier work
# BT-20 = assay type: cell-based, human; conditions: for % DNA fragmentation: BT-20, UV 0.5 J/cm^2, 8 h, no inhibitor 44 ± 3.6
# 3T3 = assay: Inhibition of UV-induced DNA fragmentation in 3T3 cells; assay type: cell-based, murine; conditions: UV 0.5 J/cm^2, 8 h, no inhibitor 38 ± 1.9
# Protocol: as §1
# DNA fragmentation assays were carried out according to the protocol of Wright S. C., et al. (1,992) J. Cell. Biochem. 48, 344-355. Target cells were labeled with ^3 H-thymidine and plated in triplicate in flat bottom microtiter plates. Cells were incubated for the indicated length of time for each experiment in the presence of TNF or various inhibitors. In some experiments, cells were treated with UV light at 245 nm using a UV Crosslinker (Fisher Scientific). Assays were harvested and counted on a Packard matrix 96 beta counter. Percent DNA fragmentation was calculated as for the nuclear assay described in Example 3. In assays to test the effects of various inhibitors, the pH of extra wells containing assay buffer, target cells, and each inhibitor was always checked at the beginning and end of each assay to assure that the pH remained at 7.5.
# isolated U937 nuclei = assay: DNA fragmentation assay using isolated U937 nuclei; assay type: cell-based, human; conditions: inhibitor 50 μM (FIG. 6B)
# Protocol: U937 cells were labeled with ^3 H-thymidine by culturing overnight with isotope at 0.5 μCi/ml. The cells were pelleted, washed once, and the cytoplasmic membrane lysed by resuspending the cells in assay buffer (50 mM Tris, 250 mM sucrose 10 mM MgSO4, pH 7.5) plus 0.02% NP-40. Nuclei were then pelleted and resuspended in assay buffer at 1×10^6 /ml. The assay was set up in triplicate in flat bottom microtiter plates under sterile conditions. Nuclei (0.05 ml) were mixed with 0.05 ml of sample diluted in 50 mM Tris pH 7.5 or buffer alone to determine total counts. Plates were incubated for 5 h at 37° C. and then harvested by the addition of 0.1 ml of harvesting buffer (10 mM Tris, 10 mM EDTA, 0.3% Triton X-100, pH 7.5). Plates were harvested by filtration onto glass fiber paper and counted on a Packard Matrix 96 beta counter. Percent DNA fragmentation was calculated as follows: […]
# U937 cells [2] = assay: cells; assay type: cell-based, human; conditions: for Effect on DNA fragmentation induced by TNF or UV light: result in words
# U937 cells [3] = assay: Visualization of DNA fragmentation in U937 cells by agarose gel electrophoresis; assay type: cell-based, human
# Protocol: In FIG. 2, U937 cells were pretreated with and without TPCK 10 μM for 30 min, exposed to UV light 0.15 J/cm^2, incubated another 2.5 h, then the DNA extracted and analyzed by agarose gel electrophoresis. Lane 1 of FIG. 2 contains molecular weight markers, lane 2 contains untreated U937, lane 3 contains U937 treated with TPCK, lane 4 contains U937 treated with UV light, lane 5 contains U937 treated with TPCK and UV light.
# DNA fragmentation was carried out according to the procedure of Example 2. After the desired treatments, the cells were lysed and debris was removed by centrifugation at 13,000×g for 10 sec. DNA in the supernatant was ethanol precipitated after phenol extraction. Equivalent amounts of material from a fixed number of cells were loaded and electrophoresed on a 1.0% agarose slab gel. DNA was visualized by ethidium bromide staining.
# [4] = system: chymotrypsin-like enzymes; conditions: cited from earlier work
# apoptotic protease [5] = conditions: unspecified protease; cited from earlier work
# [6] = system: TNF-induced hepatocyte apoptosis; assay: TNF-induced hepatotoxicity in mice (serum transaminases); assay type: in vivo, Balb/c mice
# Protocol: In this example the concept that a protease inhibitor such as DK120 may attenuate inappropriate apoptosis that causes tissue damage in systemic inflammatory response syndrome (SIRS) was tested. TNF-induced hepatocyte apoptosis in mice was performed as described by Leist et al. ((1995) J. Immunol. 154:1778-1786). Briefly, Balb/c mice were injected ip with […] murine TNF combined with […] Actinomycin D/mouse. Twelve h later, mice were anesthetized and bled from the heart to measure serum transaminase levels, which are standard clinically used indicators of liver damage. Mice that were treated with protease inhibitors were injected ip with these compounds 30 min. prior to TNF. Alanine aminotransferase (ALT) and aspartate aminotransferase (AST) were assayed using a commercially available kit (Sigma). […] However, treatment with DK120 caused a doss-dependent decrease in serum transaminase levels. […] However, a drug that nonspecifically blocks all apoptotic pathways that normally function to maintain homeostasis may not be clinically desirable. Subsequent studies were performed to determine if DK120 could also suppress hepatocyte apoptosis in response to a different stimulus.
# ^1 Mice (2 for each treatment) were injected ip +/- DK120 30 min prio
# to TNF and Actinomycin D. Twelve h later serum transaminase levels were
# (§2) To further explore the specificity of DK120 attenuation of TNF-induced hepatotoxicity, several compounds were tested that were found previously not to inhibit apoptotic protease proteolytic activity as measured against a synthetic substrate (data not shown). […] Therefore, the protection mediated by DK120 is not a property of any boron-containing molecule.
# ^1 Mice (3 for each treatment) were injected ip +/- the inhibitors 30
# min prior to TNF and Actinomycin D. Twelve h later serum transaminase
# apoptotic protease [7] = assay: Inhibition of apoptotic protease proteolytic activity against a synthetic substrate; assay type: biochemical, human; conditions: data not shown
# Protocol: Proteolytic activity was assayed using synthetic substrates selective for different known proteases. All assays were set up by adding 0.02 ml of sample (or known enzyme as a positive control) plus 0.18 ml of appropriate substrate dissolved in PBS PH 7.5 in triplicate in flat bottom microtiter plates, incubated for the indicated length of time at room temperature, and the OD at 405 nm measured using a plate reader.
# Elastase-like activity was measured using N-methoxysuccinyl-ala-ala-pro-valp-nitroanilide (SEQ ID NO: 3) (MAAPV) at 0.25 mM as a substrate. For convenience and maximum sensitivity, these assays were routinely incubated 20 h to monitor protease purification. Under these conditions, the elastase dose response was linear up to a concentration of 6.0 μg/ml (OD of 1.0), see FIG. 3C. […] In order to quantitate the activity of the purified protease, identical assays were set up but kinetic readings of OD were taken every hour from 1-6 h. One unit of enzyme was calculated as the amount of enzyme that hydrolyzes 1.0 nmol substrate/h.
# as §2
molecule,measurement,setting,value
human granzyme B: serine protease of cytotoxic lymphocyte granules,Activity on methoxysuccinyl-ala-ala-pro-val-thiobenzyl ester,[1],inactive
"Cc1ccc(S(=O)(=O)N[C@@H](Cc2ccccc2)C(=O)CCl)cc1 [TPCK, N-1-tosylamide-2-phenylethylchloromethyl ketone]",% DNA fragmentation,HL-60; inhibitor 1 μM,19 ± 2.0%
same,% DNA fragmentation,HL-60; inhibitor 5 μM,1 ± 2.3%
same,Effect on chemotherapeutic drug-induced apoptosis,HL-60 cells,inhibits chemotherapeutic drug-induced apoptosis
same,% DNA fragmentation,BT-20; inhibitor 1 μM,19 ± 5.5%
same,% DNA fragmentation,BT-20; inhibitor 5 μM,0 ± 0%
same,Effect on UV-induced DNA fragmentation,"BT-20; summary of Table 2 (BT-20, 3T3, HL-60)",effectively blocked DNA fragmentation
same,% DNA fragmentation,3T3; inhibitor 1 μM,32 ± 1.1%
same,% DNA fragmentation,3T3; inhibitor 5 μM,18 ± 0.8%
same,Inhibition of nuclear DNA fragmenting activity of protease from UV-treated cells,isolated U937 nuclei,inhibited
same,IC50,"U937 cells [2]; Homo sapiens, U-937, read-out: IC50 (Active Concentration), TNF and UV-light induced apoptosis",2000 nM
same,Concentration of maximum suppression of DNA fragmentation,"U937 cells [2]; U937, TNF 1.0 ng/ml plus cycloheximide or UV 0.1 J/cm^2, 1 h pretreatment (FIG. 1)",2.0 µM
same,Effect on DNA fragmentation induced by TNF or UV light,U937 cells [2]; U937 cells,suppressed DNA fragmentation; also recorded: dose-dependently inhibit DNA fragmentation
same,"Effect on UV light-induced DNA fragmentation, agarose gel","U937 cells [3]; TPCK 10 μM 30 min, UV 0.15 J/cm^2, 2.5 h",completely abolished UV light-induced DNA fragmentation
same,"DNA fragments on agarose gel, compound alone","U937 cells [3]; TPCK alone, no UV",no DNA fragments
same,Inhibition of chymotrypsin / chymotrypsin-like enzymes,[4],potent inhibitor of chymotrypsin-like enzymes
isopropylboronic acid [IBA],Protease inhibitory activity,apoptotic protease [5],non-inhibitory; also recorded: devoid of protease inhibitory activity
same,Protection from TNF-induced hepatotoxicity,"[6]; Table 10, 10 mg/kg",does not protect from TNF-induced hepatotoxicity
same,ALT,"[6]; mouse, in vivo",393 +/- 52 U/ml
same,"Inactive Compounds, Highest Concentration Tested (highest nontoxic concentration, inactive)","U937 cells [2]; U937 cells, TNF and UV light, compound inactive at this concentration",20 µM
same,Effect on DNA fragmentation induced by TNF or UV light,U937 cells [2]; U937 cells,does not inhibit DNA fragmentation
same,Inhibition of apoptotic protease proteolytic activity,apoptotic protease [7],no protease inhibitory activity
